Laboratory results: patent US4259332A, “Novel taurine derivatives” (priority 1979, dated 1981)
Read-outs that look alike come from different tables or passages of the source.

Legend:
[1] = assay type: in vivo, rat; conditions: fasted rats, oral, 225 mg/Kg acetylsalicylic acid
Method: Rats which had not been fed for 24 hours were used. The AST product was administered orally as the acid or the sodium salt at a dosage of 335 mg/Kg suspended in 1% carboxymethylcellulose. […] Both the methods of treatment and the observation time were identical for the 3 groups of animals.

[2] = Analgesic activity: convulsions produced by phenylquinone; assay type: in vivo, mouse; conditions: oral, ASA 200, AST 300 mg/Kg
Method: (A) Test of convulsions produced by phenylquinone injected into mice by the intraperitoneal route. The AST product was administered orally both in the acid form (AST Ac). and as the sodium salt (AST Na). It was compared with a molar equivalent dosage of acetylsalicylic acid and with a carboxymethylcellulose placebo. The convulsions were induced at varying intervals from the oral treatment counting from the first 20 minutes after the injection of phenylquinone.

[3] = Analgesic activity: mechanical pressure test on inflamed rat's paw; assay type: in vivo; conditions: oral, ASA 200, AST 300 mg/Kg
Method: (B) Mechanical pressure test on inflamed rat's paw. The AST product was administered both in the acid and sodium salt form by the oral method. It was compared with a molar equivalent dosage of acetylsalicylic acid and with a carboxymethylcellulose placebo. The inflammation of the paw was induced by a local injection of yeast simultaneously with the oral treatment with the drugs and the tenderness was measured in grams of mechanical pressure required to cause a reaction in the animal.

[4] = Edema resulting from yeast in the paw of the rat; assay type: in vivo; conditions: oral, ASA 200, AST 300 mg/Kg
Method: (A) Edema resulting from yeast in the paw of the rat. The AST product was administered orally both in the acid and sodium salt form. It was compared with a molar equivalent dose of acetylsalicylic acid and with carboxymethylcellulose placebo. The edema of the paw was induced with a local injection of the yeast simultaneously with the oral treatment with the drugs, and the volume of the paw was measured in hundredths of milliliter.

[5] = Edema as a result of nystatin in the rat's paw; assay type: in vivo; conditions: p.o.
Method: (B) Edema as a result of nystatin in the rat's paw. The long duration of this type of edema enabled the animals to be repeatedly treated in order to ascertain the presence if any of the protracted effect of the AST product also using parenteral administration. The comparison was carried out using a molar equivalent dose of acetylsalicylic acid administrated orally and with the carboxymethylcellulose placebo also only administered orally. The AST product was used in the acid form orally and in the salt form using intraperitoneal administration.
The dosages of the drugs, always proportional to one another, were varied from day to day, i.e.: the first day a dosage of 200 mg/Kg of ASA and 300 mg/Kg of AST; the second day a double dose of each; the third day a double dose of each divided into two equal components administered with a spacing of 9 hours (10 am and 7 pm respectively); the fourth day no treatment in order to check the length of the effect after the fourth administration.
The […] was injected into the paw on the night before the first treatment with the drugs and the volume of the paw was measured in hundredths of milliliter.

[6] = Antipyretic activity: pyrexia from subcutaneous yeast in the rat; assay type: in vivo; conditions: p.o., ASA 200, AST 300 mg/Kg
Method: Pyrexia from subcutaneous yeast in the rat. The AST product was administered orally in the acid from and the salt form with sodium, and by the intraperitoneal method in the salt form. It was compared with a molar equivalent dose of acetylsalicylic acid administered orally and with a carboxymethylcellulose placebo. The pyrexia was induced with a subcutaneous injection of yeast on the evening prior to the drug treatment, i.e. 16 hours before.

[7] = mouse, literature, cited from earlier work
[8] = Choleretic activity in cannulated rats; assay type: in vivo, rat; conditions: for Bile dry residue change / Bile volume change / Bile dry residue after 2 h / Bile volume after 2 h: 100 mg/kg i.v.; for Bile dry residue after 2 h / Bile volume after 2 h: given after first hour; for Bile dry residue after 1 h / Bile volume after 1 h: before treatment (first hour)
Method: Rats were fitted with a cannula, the bile volume was measured after the first hour, they were then treated with a test compound and the bile volume was measure after the second hour, so as to determine the percentage change. The various compounds were administered intravenously at a dose of 100 mg/kg.

[9] = Protection against hepatic intoxication by CCl4 and cold, Compound B (BSF in blood); assay type: in vivo; conditions: 500 mg/kg endoperitoneal
Method: Oral administration of 5 ml/kg of a 20% solution of CCl4 in oil, with simultaneous endoperitoneal administration of 500 mg/kg of Compound B, was followed by exposure for 5 hours at 4° C. BSF in the blood (30 mg/kg i.v.) was tested. A comparison product, homocysteinethiolactone (OCT) was employed.
10 Animals were treated per group, and the results expressed as percentage change with respect to the controls were as shown in Table 4.

[10] = Vasodilator activity (vasodilation of the ocular conjunctiva in guinea pigs); assay type: in vivo, guinea pig
[11] = Antilipemic action, Morris or Handler diet, Compound A; assay type: in vivo, Wistar rat; conditions: 50 days, 200 mg/kg orally
Method: Wistar rats were treated for 50 days with a Morris diet or a Handler diet. Simultaneously with the diet they received 200 mg/kg of Compound A or of choline orally every day. The controls only received the diet. The following were examined at the end of the treatment: (a) total cholesterol, total lipids and beta-lipoproteins in the serum, (b) BSF excretion in the bile.

[12] = Antilipemic action, Morris, Handler or Nath diet, Compound B; assay type: in vivo, Wistar rat; conditions: 45 days, 200 mg/kg orally
Method: Wistar rats were treated for 45 days with a Morris diet, a Handler diet or a Nath diet. Simultaneously with the diet they received each day 200 mg/kg of Compound B or choline (except for the Nath diet) orally.

## CC(=O)Oc1ccccc1C(=O)O [ASA, acetylsalicylic acid, reference compound]
[1]
  Haemorrhagic gastric ulcers: 5 to 10
[2]; 1h
  Inhibition % of convulsions in respect of treatment with placebo: 23%
[2]; 2h
  Inhibition % of convulsions in respect of treatment with placebo: 37%
[2]; 4h
  Inhibition % of convulsions in respect of treatment with placebo: 17%
[3]; 1h
  % Inhibition of the hyperalgesia in respect of treatment with placebo: 27%
[3]; 5h
  % Inhibition of the hyperalgesia in respect of treatment with placebo: 0%
[4]; 1h
  Inhibition of the edema with respect to treatment with placebo: 41
[4]; 3h
  Inhibition of the edema with respect to treatment with placebo: 51
[4]; 5h
  Inhibition of the edema with respect to treatment with placebo: 55
[5]; 1st day, 2h after 1st dose, ASA 200, AST Ac 300 mg/Kg
  % Inhibition of the edema in respect of treatment with placebo: 8%
[5]; 1st day, 4h after 1st dose, ASA 200, AST Ac 300 mg/Kg
  % Inhibition of the edema in respect of treatment with placebo: 10%
[5]; 1st day, 8h after 1st dose, ASA 200, AST Ac 300 mg/Kg
  % Inhibition of the edema in respect of treatment with placebo: 7%
[5]; 2nd day, 2h after 2nd dose, ASA 400, AST Ac 600 mg/Kg
  % Inhibition of the edema in respect of treatment with placebo: 10%
[5]; 2nd day, 4h after 2nd dose, ASA 400, AST Ac 600 mg/Kg
  % Inhibition of the edema in respect of treatment with placebo: 11%
[5]; 2nd day, 8h after 2nd dose, ASA 400, AST Ac 600 mg/Kg
  % Inhibition of the edema in respect of treatment with placebo: 15%
[5]; 3rd day, 2h after 3rd dose, ASA 200, AST Ac 300 mg/Kg
  % Inhibition of the edema in respect of treatment with placebo: 8%
[5]; 3rd day, 4h after 3rd dose, ASA 200, AST Ac 300 mg/Kg
  % Inhibition of the edema in respect of treatment with placebo: 11%
[5]; 3rd day, 8h after 3rd dose, ASA 200, AST Ac 300 mg/Kg
  % Inhibition of the edema in respect of treatment with placebo: 14%
[5]; 4th day, 13h after 4th dose, ASA 200, AST Ac 300 mg/Kg
  % Inhibition of the edema in respect of treatment with placebo: 9%
[5]; 4th day, 17h after 4th dose, ASA 200, AST Ac 300 mg/Kg
  % Inhibition of the edema in respect of treatment with placebo: 12%
[5]; 4th day, 23h after 4th dose, ASA 200, AST Ac 300 mg/Kg
  % Inhibition of the edema in respect of treatment with placebo: 8%
[6]; 1h
  % Inhibition of the pyrexia in respect of treatment with placebo: 78%
[6]; 2h
  % Inhibition of the pyrexia in respect of treatment with placebo: 103%
[6]; 4h
  % Inhibition of the pyrexia in respect of treatment with placebo: 114%
[6]; 6h
  % Inhibition of the pyrexia in respect of treatment with placebo: 58%
[6]; 8h
  % Inhibition of the pyrexia in respect of treatment with placebo: 45%
[7]; intraperitoneal
  LD50: 420 mg/kg
[7]; oral
  LD50: 1,050 mg/kg

## CCC(C(=O)O)C1(O)CCC(c2ccccc2)CC1 (stereo not drawn) [α-(1-hydroxy-4-phenylcyclohexyl)butyric acid]
[8]
  Bile dry residue change: +39.1%
  Bile volume change: +90.0%
  Bile dry residue after 2 h: 32.7 mg/h
  Bile volume after 2 h: 1.14 mL/h
  Bile dry residue after 1 h: 23.5 mg/h
  Bile volume after 1 h: 0.60 mL/h

## NC1CCSC1=O (centres unmarked) [OCT, homocysteinethiolactone, reference compound]
[9]; test number 1
  Hepatic intoxication protection, percentage change of BSF in blood vs controls: -22.7%
[9]; test number 2
  Hepatic intoxication protection, percentage change of BSF in blood vs controls: -18.5%

## O=C(O)C(O)C(O)C(=O)O.OCc1cccnc1 (centres unmarked) [3-Pyridylcarbinol tartrate, 3-pyridylcarbinol tartrate]
[10]; 0.1 mg/kg endoperitoneal
  Vasodilator effect: duration: 0 min
  Vasodilator effect: positive response: 0%
  Vasodilator effect: time of appearance: 0 s
[10]; 1.0 mg/kg endoperitoneal
  Vasodilator effect: positive response: 40%
[10]; 10.0 mg/kg endoperitoneal
  Vasodilator effect: duration: 120 min
  Vasodilator effect: positive response: 100%
  Vasodilator effect: time of appearance: 57 s

## O=S(=O)(O)CCNCCO [N-hydroxyethyltaurine]
[8]
  Bile dry residue change: -10.9%
  Bile volume change: -12.2%
  Bile dry residue after 2 h: 26.0 mg/h
  Bile volume after 2 h: 0.72 mL/h
  Bile dry residue after 1 h: 29.1 mg/h
  Bile volume after 1 h: 0.82 mL/h

## C[N+](C)(C)CCO [Choline, choline, reference compound]
[11]; Handler diet
  Bile BSF excretion, percentage change vs controls: -39.5%
  Serum total cholesterol, percentage change vs controls: -21.1%
  Serum total lipids, percentage change vs controls: +44.2%
[11]; Morris diet
  Bile BSF excretion, percentage change vs controls: -2.8%
  Serum beta-lipoproteins, percentage change vs controls: +89.8%
  Serum total cholesterol, percentage change vs controls: -22.9%
  Serum total lipids, percentage change vs controls: +2.3%
[12]; Handler diet, B and Choline
  Bile BSF, percentage change vs control: -39.5%
  Liver total lipids, percentage change vs control: -29.2%
  Serum total cholesterol, percentage change vs control: -21.1%
  Serum total lipids, percentage change vs control: +44.2%
[12]; Morris diet
  Bile BSF, percentage change vs control: -2.8%
  Liver total lipids, percentage change vs control: +14.0%
  Serum beta-lipoproteins, percentage change vs control: +89.8%
  Serum total cholesterol, percentage change vs control: -22.9%
  Serum total lipids, percentage change vs control: +2.3%

## O=C(O)c1cccnc1 [Nicotinic acid, nicotinic acid]
[10]; 10.0 mg/kg endoperitoneal
  Vasodilator effect: duration: 0 min
  Vasodilator effect: positive response: 0%
  Vasodilator effect: time of appearance: 0 s
[10]; 25.0 mg/kg endoperitoneal
  Vasodilator effect: positive response: 20%
[10]; 50.0 mg/kg endoperitoneal
  Vasodilator effect: duration: 87 min
  Vasodilator effect: positive response: 80%
  Vasodilator effect: time of appearance: 180 s

## O=C(OC1C(OC(=O)c2cccnc2)C(OC(=O)c2cccnc2)C(OC(=O)c2cccnc2)C(OC(=O)c2cccnc2)C1OC(=O)c1cccnc1)c1cccnc1 (centres unmarked) [Mesoinosital hexanicotinate, mesoinosital hexanicotinate]
[10]; 1.0 mg/kg endoperitoneal
  Vasodilator effect: duration: 0 min
  Vasodilator effect: positive response: 0%
[10]; 10.0 mg/kg endoperitoneal
  Vasodilator effect: duration: 87 min
  Vasodilator effect: positive response: 100%
  Vasodilator effect: time of appearance: 81 s
